Here are results for 16 compounds from patent US5132429A, “Benzotriazole derivatives and fluorescence-emitting reagents thereof” (priority 1988, dated 1992).

The target of data set [1] is α1-AG (α1-acid glycoprotein). As to the kind of experiment: Binding constant of basic drug to α1-AG by displacement of compound 1 (fluorescence probe method, Klotz formula). To be noted: 0.1M phosphoric acid buffer pH 7.4; 3×10^-6 M α1-AG; compound 1 as probe. As to the method: (§1) Two different kinds of solutions, one containing α1 -AG and a compound of this invention listed above, the other containing α1 -AG, the compound of this invention, and a drug, are prepared to measure fluorescence intensity at the excitation. fluorescence wavelength, as shown in Table 2. According to the working curve made beforehand, the binding rate of the compound to α1 -AG in each solution is determined and the binding constant of a drug to α1-AG is calculated from the difference between the binding rates in the presence and the absence of a drug.
(§2) In the fluorescence cell made of quartz with a plug was placed the buffer solution of 0.1M phosphoric acid (2 ml) which pH is 7.4 and containig 1×10^-4 M α1 -AG, to which 5×10^-4 M aqueous solution of the compound 1 was added by 2 μl each with a microcylinder, which was prepared by dissolving about 3 mg of the compound 1 in 1N hydrochloric acid (1 ml), followed by diluting with water to make the total volume 200 times, and the resulting solution was mixed fully to determine fluorescence intensity at 508 nm (excitation wavelength: 418 nm).
(§3) For the buffer solution of 0.1M phosphoric acid (2 ml) which pH is 7.4 and containing 3×10^-6 M α1 -AG, the same procedure as in Example 1 was performed.
As for the other basic drugs shown in Table 3, binding constant were obtained according to the same manner as in Example 11.

In data set [2] the test system is α1-AG. To be noted: cited from earlier work.
The test system of data set [3] is α1-AG. As to the kind of experiment: Fluorescence (excitation and fluorescence wavelength) with α1-AG. In kind it is physicochemical. As to the method:
as §1
Sulfosalicylic acid is added to the sample solution containing α1 -AG to remove coexisting proteins, to which the solution containing a compound is added. The mixed solution is subjected to determination of fluorescence intensity at excitation. fluorescence wavelength as shown in Table 2. According to the working curve on the standard solution of α1 -AG, the concentration of α1-AG in the sample is determined.

A further data set has as its system Human Serum Albumine. As to the kind of experiment: Fluorescence (excitation and fluorescence wavelength) with human serum albumin. In kind it is physicochemical. As to the method: A solution containing a compound is added to a solution containing albumin and the mixed solution is subjected to determination of fluorescence intensity at excitation. fluorescence wavelength as shown in Table 2. According to the working curve on the standard albumin solution made beforehand, the concentration of albumin in the sample solution is determined.

The subject of data set [4] is α1-AG (α1-acid glycoprotein). The experiment in a line: Binding of compound to α1-AG by fluorescence titration, Scatchard analysis. The following applies: for binding of the compound 1 to α1-AG: pH 7.4. The method, then:
as §2, §3
The binding rate (X) of the compound 1 to α1 -AG was introduced from the following formula (1) [formula]
In this scheme, Fb is fluorescence intensity at some concentration of the compound 1 which was obtained in Experiment 1, Fp is fluorescence intensity at the same concentration of the compound 1 which was obtained in Example 2, and Fo is blank value.
The value introduced from the binding rate at each concentration of the compound 1 was plotted accoding to the formula (2) of Scatchard, whereby the binding parameter of the compound 1 to α1 -AG was obtained.
In this scheme, r is the amount of binding of the compound 1 per α1 -AG (1 mole), n is the number of binding site, Ka is the binding constant of the compound 1, Df is the concentration of the compound 1 which is free form.

Take `CN(C)CCC=C1c2ccccc2CCc2ccccc21` [Amitriptyline]: in data set [1], the “log Kb (binding constant)” value is reported as 5.58.
With `CN(C)c1ccc(C(=N)c2ccc(N(C)C)cc2)cc1` [Auramin O], the “binding strength to α1-AG” value in the data set with α1-AG [2] (Y. Sugiyama et al, Biochem. Pharmcol. 34(6), 821-829 (1985)) was “very weak”.
`CCN(CC)c1ccc(-n2nc3cc(N)cc(Cl)c3n2)cc1` [Compound 1, 7-chloro-2-(p-diethylaminophenyl)-2H-benzotriazolyl-5-amine]: the “Excitation Wavelength” value worked out at 418 nm in the data set on α1-AG [3] and 415 nm in the data set on Human Serum Albumine. The figures for the “Fluorescence Wavelength” value in the data set with α1-AG [3] and with Human Serum Albumine were 508 nm and 505 nm, respectively. Also, in data set [4] (0.1M phosphoric acid buffer pH 7.4, 3×10^-6 M α1-AG, Scatchard), the “n (number of binding site)” value was determined as 0.40. The “binding of the compound 1 to α1-AG” value in data set [4] (1×10^-4 M α1-AG, ex 418 nm, em 508 nm) is on record as “all of the compound 1 bound to α1 -AG”; in data set [4] (3×10^-6 M α1-AG) it was “under an equilibrium condition”.
Consider `CNc1ccc(-n2nc3cc(N)cc(Cl)c3n2)cc1` [Compound 2, 7-chloro-2-(p-methylaminophenyl)-2H-benzotriazolyl-5-amine], for which, in the data set on α1-AG [3], the “Excitation Wavelength” value is recorded as 396 nm and the “Fluorescence Wavelength” value amounted to 482 nm. For the same compound, in the data set with Human Serum Albumine, the “Excitation Wavelength” value is 385 nm and the “Fluorescence Wavelength” value came to 480 nm.
For `Nc1cc(Cl)c2nn(-c3ccc(Nc4ccccc4)cc3)nc2c1` [Compound 3, 7-chloro-2-(p-anilinophenyl)-2H-benzotriazolyl-5-amine], in the data set with α1-AG [3], the “Excitation Wavelength” value is on record as 400 nm and the “Fluorescence Wavelength” value was found to be 505 nm. Moreover, in the data set with Human Serum Albumine, the “Excitation Wavelength” value is listed as 400 nm and the “Fluorescence Wavelength” value is reported as 485 nm.
In the case of `Nc1cc(Cl)c2nn(-c3ccc(N4CCOCC4)cc3)nc2c1` [Compound 4, 7-chloro-2-(p-morpholinophenyl)-2H-benzotriazolyl-5-amine], in the data set on α1-AG [3], the “Excitation Wavelength” value is on record as 396 nm and the “Fluorescence Wavelength” value is reported as 502 nm. Besides, in the data set with Human Serum Albumine, the “Excitation Wavelength” value came to 383 nm and the “Fluorescence Wavelength” value was 465 nm.
The corresponding values for `CCOC(=O)c1cc(N)cc2nn(-c3ccc(N(CC)CC)cc3)nc12` [Compound 5, Ethyl 6-amino-2-(p-diethylaminophenyl)-2H-benzotriazole-4-carboxylate] are 452 nm, 567 nm, 420 nm and 520 nm.
Turning to `CNCCCN1c2ccccc2CCc2ccccc21` [Desipramine], the “log Kb (binding constant)” value in data set [1] was determined as 4.86.
Regarding `COc1ccc([C@@H]2Sc3ccccc3N(CCN(C)C)C(=O)[C@@H]2OC(C)=O)cc1` [Diltiazem], the “log Kb (binding constant)” value in data set [1] came out at 5.40.
Same read-out and setting: with `CN(C)CCCN1c2ccccc2CCc2ccccc21` [Imipramine] the figure was 5.61; with `COc1ccc2c(c1)N(C[C@H](C)CN(C)C)c1ccccc1S2` [Levomepromazine], 6.01.
Take `COC(=O)C1=C(C)NC(C)=C(C(=O)OCCN(C)Cc2ccccc2)C1c1cccc([N+](=O)[O-])c1` (stereo not shown) [Nicardipine]: the “log Kb (binding constant)” value in data set [1] was determined as 6.78.
Turning to `CCC(c1ccccc1)c1c(O)c2ccccc2oc1=O` (stereo not shown) [Phenprocoumon], the “wavelength suitable for determination” value with α1-AG [2] (M. Otagiri et al., J. of Pharmaceutical Sciences 76(8), 646-649 (1987)) was “short”.
On to `CC(C)NCC(O)COc1cccc2[nH]ccc12` (stereo not shown) [Pindolol], for which the “log Kb (binding constant)” value in data set [1] came out at 5.33.
Same read-out and setting: with `CC(CN1c2ccccc2Sc2ccccc21)N(C)C` (stereo not shown) [Promethazine] the figure was 4.94; with `CC(CN(C)C)CN1c2ccccc2CCc2ccccc21` (stereo not shown) [Trimipramine], 5.54.
